Assay results published in patent US4288609A, “Quaternary ammonium derivatives of adamantane with antimicrobic activity” (priority 1976, dated 1981).
Values joined by “and” are separate entries in the source; they are usually repeats but may differ in a detail not shown here. Equal entries are not always repeated. Where two headings read alike, the source gives them in different places.

Columns and labels:
[1] = tested on: gram+ and gram- bacterial strains; test: Activity in vitro on gram+ and gram- bacteria, overall; type: cell-based; settings: gram positive and gram negative strains, low concentrations
Method: (§1) The method for evaluating the activity in vitro against bacteria, fungi and protozoa consists in introducing calculated quantities of the substance, the activity of which it is desired to test, into culture media already inoculated with a predetermined number of test germs.
(§2) After 24 or 48 hours of incubation at 30° or 37° C., according to the micro-organism being tested, it is possible to evaluate the growth of the same in the culture broth; in this manner the minimum concentration (M.I.C.) which inhibits the growth of the micro-organisms in vitro is determined.
(§3) In table 1 there are recorded the M.I.C. values in γ/ml of the products subject of the present invention, against certain gram+ and gram- bacterial strains, some of which are pathogenic towards human beings.

[2] = tested on: Candida Albic. SKF 2270; test: MIC yeasts, Candida albicans (Table 2); type: cell-based; settings: for MIC: Sabourand broth; for activity on Candida albicans, times greater than that of cetyl pyridine chloride: in the absence of serum; for activity on Candida albicans, times higher than that of cetyl pyridine chloride: in the presence of 10% of horse serum
Method: as §1, §2
Inoculation with Candida albicans or Candida pseudotropicalis was made by diluting cultures grown for 24 h at 30° C. (cellular density inoculated 10^3 /ml).
(§4) For the fungi Sabourand broth was used as a culture medium, whilst for the protozoa Kupferberg Trichomonas broth with 5% of horse serum was used.

[3] = tested on: Pseudom.Aer. ATCC 1014; test: M.I.C. in vitro, gram- Pseudom. Aer. (Table 1); type: cell-based, Pseudomonas Aeruginosa; settings: for MIC: Pseudomonas aeruginosa, read-out: M.I.C.
Method: as §1, §2, §3

[4] = tested on: Trichophyton Mentagrophytes; test: Topical activity upon dermatophytis from Trichophyton in cavies (Table 6); type: in vivo, Albino cavies; settings: for evaluation of seriousness of infection (A.D.I.): average index
Method: Albino cavies of 250-300 g are infected, after depilation and scarification of a circular area of dorsal skin upon which there are supplied 0.1 ml of a suspension of microconidia of Trichophyton Mentagrophytes from the Pasteur Institute collection, obtained from a culture of 15 days upon Saboureaud agar. 24 Hours after infection topical treatment is started and is continued for two weeks (once per day).
The compounds to be tested are dissolved or suspended at the desired concentration, in a water-alcohol mixture (75/25 v/v) containing 0.75% by weight of carboxymethyl-cellulose (CMC). […] Each single application is carried out using 0.25 ml of the suspension or solution obtained as described above.
Fourteen days after infection the lesions are assessed. Assessment is carried out by attributing index numbers depending upon the seriousness of the lesions formed, as follows:
The substances under examination were tested at concentrations of 5 and 2.5% by weight.

[5] = tested on: Klens. Pneum. ISM; test: M.I.C. in vitro, gram- Klens. Pneum. (Table 1); type: cell-based; settings: for MIC: read-out: M.I.C.
Method: as §1, §2, §3

[6] = tested on: Escherichia Coli SKF 12140; test: Speed of sterilising action, Escherichia Coli (Table 3); type: cell-based
Method: (§5) The strains, inoculants, culture broths and experimental methods are as already seen for calculating the M.I.C. in vitro. The antimicrobic substances were tested at concentrations of 0.1, 0.25, 0.5 and 1 g/l, the contact times taken into consideration are 0, 1, 2.5, 5, 7.5, 10, 15, 30 and 60 minutes.
(§6) The samples which at the 7th day of incubation still had no growth of micro-organisms which could be observed macroscopically and/or microscopically were considered sterile.
(§7) The results are recorded in Table 3 in terms of sterilization time expressed in minutes.

[7] = tested on: Trichophyton Mentagrophytes Ist. Pasteur; test: Speed of sterilising action, Trichophyton Mentagrophytes (Table 3); type: cell-based
Method: as §5, §6, §7

[8] = Acute oral toxicity in mice (Table 4); settings: mouse, in vivo, po, LD50, oral, mice, 14 days
Method: The substances were administered orally to groups of 10 female mice CF1 of average weight of about 20 grams, in aqueous solution and in such way that the total volume administered would be in each case 1 ml/100 g of weight.

[9] = tested on: Staph.Aureus Tour; test: M.I.C. in vitro, gram+ Staph. Aureus (Table 1); type: cell-based, Staphylococcus Aureus; settings: for MIC: Staphylococcus aureus, read-out: M.I.C.
Method: as §1, §2, §3

[10] = tested on: Trych. Mentagr. 1st.Pastuer; test: MIC mildews, Trichophyton mentagrophytes (Table 2); type: cell-based; settings: Sabourand broth
Method: as §1, §2
Inoculation with Trichophyton mentagrophytes and Microsporum canis was effected in a ratio of 1% of the volume of medium used.
as §4

[11] = tested on: Candida albicans; test: Activity upon vaginal candidiasis in mice (Table 7); type: in vivo, female Swiss mice (Charles River CD1); settings: for proliferation index (individual): eighth day
Method: The treatment groups consist each of 8 female Swiss mice (Charles River CD1) of average weight 20 g. The animals are infected with 0.025 ml of a 24 hour culture of Candida albicans, equal to 10^6 cellules.
0.025 ml of a suspension in lanoline of the compound to be tested, at the desired concentration, are applied locally twice a day for a week, the first treatment being started five hours after infection.
The control group is treated with the lanoline alone in the same way. On the eighth day vaginal washings are carried out with 0.025 ml of sterile physiological solution, and the liquid is sown in Petri dishes containing Bacto Biggy Agon Difco as a selective growing medium for the Candida.
After 48 hours of incubation of the dishes at 30° C. a count is taken of the colonies which have grown. Assessment of the activity is quantized using the indices listed here below:
The results are expressed as percentages of the average index of seriousness of the infection A.D.I. (Average Degree of Infection) in the animals treated with respect to the animals in the control group.
The substances under examination were tested at concentrations of 5 and 3% by weight.

[12] = tested on: Trich. Vaginalis ISM 66/22; test: MIC protozoa, Trichomonas vaginalis (Table 2); type: cell-based; settings: +10% serum (head), Kupferberg Trichomonas broth with 5% of horse serum
Method: as §1, §2
Inoculation with Trichomonas vaginalis and Trichomonas foetus, obtained from cultures transplanted every other day to make them lively, was effected in a ratio of 3.5% of the volume of medium used.
as §4

[13] = tested on: Candida Albicans SKF 2270; test: Speed of sterilising action, Candida Albicans (Table 3); type: cell-based
Method: as §5, §6, §7

[14] = tested on: Diplococcus Pneum. ISM; test: M.I.C. in vitro, gram+ Diplococcus Pneum. (Table 1); type: cell-based; settings: read-out: M.I.C.
Method: as §1, §2, §3

[15] = tested on: all the micro-organisms tested; test: Speed of sterilising action, all micro-organisms; type: cell-based; settings: even with a very low concentration
Method: as §5, §6, §7

For CCCCCCCCCCCC[N+](C)(C)CCNC(=O)C12CC3CC(CC(C3)C1)C2 [Example 8], the “antibacterial activity (in words)” value [1] was “powerful antibacterial activity at low concentrations”, the MIC ([2]; Candida, +10% serum, read-out: MIC) was 20 µg/mL and the MIC ([2]; Candida, without serum, read-out: MIC) was 0.2 µg/mL. For the same compound, the “activity on Candida albicans, times greater than that of cetyl pyridine chloride” value [2] was “about 25 times”, the “activity on Candida albicans, times higher than that of cetyl pyridine chloride” value [2] was 5-10 times and the MIC ([3]; ATCC1014, +10% serum) was 50 µg/mL. The MIC ([3]; ATCC1014, without serum) was 10 µg/mL, the “in vivo activity against Trichophyton Mentagrophytes (in words)” value [4] was “excellent "in vivo" activity against Trichophyton Mentagrophytes” and the MIC ([5]; +10% serum) was 50 µg/mL. It also gave an MIC ([5]; without serum) of 5 µg/mL, a sterilization time ([6]; 0.1 g/l) of 60 min and a sterilization time ([6]; 0.25 g/l) of 60 min. The sterilization time ([6]; 0.5 g/l) was 10 min, the sterilization time ([6]; 1 g/l) was 7.5 min and the sterilization time ([7]; 0.1 g/l) was 60 min. The sterilization time ([7]; 0.25 g/l) was 60 min, the sterilization time ([7]; 0.5 g/l) was 10 min and the sterilization time ([7]; 1 g/l) was 5 min. For the same compound, the LD50 at 336 h [8] was 760 mg/kg, the MIC ([9]; +10% serum) was 5 µg/mL and the MIC ([9]; without serum) was under 0.1 µg/mL. For the same compound, the MIC ([10]; Trichophyton mentagrophytes, +10% serum, read-out: MIC) was 5 µg/mL, the MIC ([10]; Trichophyton mentagrophytes, without serum, read-out: MIC) was 0.1 µg/mL and the “% of healing (100-A.D.I. %)” value ([11]; 3% by weight) was 63.03%. The “A.D.I. (compared with controls)” value ([11]; 3% by weight) was 36.97%, the “average proliferation index (A.D.I)” value ([11]; 3% by weight) was 0.88 and the “proliferation index (individual)” value ([11]; 3% by weight) was 0-1-1-3-0-0-0-2. For the same compound, the “% of healing (100-A.D.I. %)” value ([11]; 5% by weight) was 78.99%, the “A.D.I. (compared with controls)” value ([11]; 5% by weight) was 21.01% and the “average proliferation index (A.D.I)” value ([11]; 5% by weight) was 0.50. The “no. of animals surviving” value ([11]; 5% by weight, 8 animals) was 2, the “proliferation index (individual)” value ([11]; 5% by weight) was 0-0-0-2-1-0-0-1 and the “tolerance by vaginal mucous membrane” value ([11]; mice, local) was “perfectly tolerated by very delicate tissues”. The “topical in vivo activity against Candida albicans (in words)” value ([11]; mouse, in vivo) was “excellent topical activity "in vivo" even against Candida albicans”, the MIC ([12]; Trichomonas vaginalis, read-out: MIC) was 2 µg/mL and the sterilization time ([13]; 0.1 g/l) was 60 min. It also gave a sterilization time ([13]; 0.25 g/l) of 15 min, a sterilization time ([13]; 0.5 g/l) of 2.5 min and a sterilization time ([13]; 1 g/l) of 2.5 min. For the same compound, the MIC ([14]; +10% serum) was 5 µg/mL, the MIC ([14]; without serum) was 1 µg/mL and the “sterilising action (in words)” value [15] was “swift sterilising action on all the micro-organisms tested”.

With CCCCCCCCCC[N+](C)(C)CCOC(=O)C12CC3CC(CC(C3)C1)C2 (single isomer, unassigned) [Example 1, n-Decyl-dimethyl-(1-adamantane-carboxy)-ethyl-ammonium bromide] the “antibacterial activity (in words)” value [1] was “powerful antibacterial activity at low concentrations”, the MIC ([2]; +10% serum) was 10 µg/mL and the “activity on Candida albicans, times greater than that of cetyl pyridine chloride” value [2] was “about 25 times”. The “activity on Candida albicans, times higher than that of cetyl pyridine chloride” value [2] was 5-10 times, the MIC ([2]; without serum) was 0.2 µg/mL and the MIC ([3]; ATCC1014, +10% serum) was 50 µg/mL. For the same compound, the M.I.C. ([3]; without serum) was 20 µg/mL, the “A.D.I. (% of control group)” value ([4]; 2.5% by weight) was 31.09% and the “healing % (100-A.D.I. %)” value ([4]; 2.5% by weight) was 68.91%. For the same compound, the “evaluation of seriousness of infection (A.D.I.)” value ([4]; 2.5% by weight) was 0.83, the “A.D.I. (% of control group)” value ([4]; 5% by weight) was 12.36% and the “healing % (100-A.D.I. %)” value ([4]; 5% by weight) was 87.64% and ~90%. For the same compound, the “evaluation of seriousness of infection (A.D.I.)” value ([4]; 5% by weight) was 0.33, the “in vivo activity against Trichophyton Mentagrophytes (in words)” value [4] was “excellent "in vivo" activity against Trichophyton Mentagrophytes” and the MIC ([5]; +10% serum) was 50 µg/mL. The M.I.C. ([5]; without serum) was 5 µg/mL, the sterilization time ([6]; 0.1 g/l) was 60 min and the sterilization time ([6]; 0.25 g/l) was 60 min. For the same compound, the sterilization time ([6]; 0.5 g/l) was 15 min, the sterilization time ([6]; 1 g/l) was 5 min and the sterilization time ([7]; 0.1 g/l) was 60 min. For the same compound, the sterilization time ([7]; 0.25 g/l) was 30 min, the sterilization time ([7]; 0.5 g/l) was 15 min and the sterilization time ([7]; 1 g/l) was 5 min. For the same compound, the LD50 at 336 h [8] was 910 mg/kg, the M.I.C. ([9]; +10% serum) was 2 µg/mL and the MIC ([9]; without serum) was under 0.1 µg/mL. The MIC ([10]; +10% serum) was 5 µg/mL, the MIC ([10]; without serum) was 0.1 µg/mL and the “% of healing (100-A.D.I. %)” value ([11]; 3% by weight) was 63.03%. The “A.D.I. (compared with controls)” value ([11]; 3% by weight) was 36.97%, the “average proliferation index (A.D.I)” value ([11]; 3% by weight) was 0.88 and the “% of healing (100-A.D.I. %)” value ([11]; 5% by weight) was 84.03%. The “A.D.I. (compared with controls)” value ([11]; 5% by weight) was 15.97%, the “average proliferation index (A.D.I)” value ([11]; 5% by weight) was 0.38 and the “no. of animals surviving” value ([11]; mouse, in vivo) was 8. The “tolerance by vaginal mucous membrane” value ([11]; mouse, in vivo) was “perfectly tolerated by very delicate tissues”, the “topical in vivo activity against Candida albicans (in words)” value ([11]; mouse, in vivo) was “excellent topical activity "in vivo" even against Candida albicans” and the MIC [12] was 5 µg/mL. The sterilization time ([13]; 0.1 g/l) was 30 min, the sterilization time ([13]; 0.25 g/l) was 2.5 min and the sterilization time ([13]; 0.5 g/l) was 1 min. For the same compound, the sterilization time ([13]; 1 g/l) was 1 min, the MIC ([14]; +10% serum) was 5 µg/mL and the MIC ([14]; without serum) was 1 µg/mL. For the same compound, the “sterilising action (in words)” value [15] was “swift sterilising action on all the micro-organisms tested”.
